Earlier results, collected in US20060014828A1 (priority 2004, published 2006).
Where a name gives a salt, the structure may show the parent alone.

| Structure (SMILES) | Solubility in alcohol | Solubility in ether | Solubility in water | Solubility in organic solvents such as ethanol, ether and chloroform |
| --- | --- | --- | --- | --- |
| NNc1nncc2ccccc12 [Hydralazine hydrochloride] | slightly soluble | very slightly soluble | soluble | – |
| O=[N+]([O-])O[C@H]1CO[C@H]2[C@@H]1OC[C@H]2O[N+](=O)[O-] [isosorbide dinitrate, 1,4,3,6-dianhydro-D-glucitol-2,5-dinitrate] | – | – | sparingly soluble | freely soluble |
